Results taken from PMC5223566, “The Benzopyrone Biochanin-A as a reversible, competitive, and selective monoamine oxidase B inhibitor” (BMC Complementary and Alternative Medicine, 2017).
“And” between values parts separate entries of the source, which are not always exact repeats. Equal values may be shown once. Read-outs that look alike come from different tables or passages of the source.

Experiments:
[1] = target: T1, recombinant human MAO-B (hMAO-B) (Homo sapiens, UniProt P27338); test: hMAO-B continuous spectrophotometric assay (enzymatic H2O2 production); type: biochemical; details: for IC50: 3 mM benzylamine, 40 min preincubation at RT, ± SEM
T1 construct: purchased Sigma-Aldrich; host or cells: baculovirus infected insect cells
T1 sequence (P27338 1-520): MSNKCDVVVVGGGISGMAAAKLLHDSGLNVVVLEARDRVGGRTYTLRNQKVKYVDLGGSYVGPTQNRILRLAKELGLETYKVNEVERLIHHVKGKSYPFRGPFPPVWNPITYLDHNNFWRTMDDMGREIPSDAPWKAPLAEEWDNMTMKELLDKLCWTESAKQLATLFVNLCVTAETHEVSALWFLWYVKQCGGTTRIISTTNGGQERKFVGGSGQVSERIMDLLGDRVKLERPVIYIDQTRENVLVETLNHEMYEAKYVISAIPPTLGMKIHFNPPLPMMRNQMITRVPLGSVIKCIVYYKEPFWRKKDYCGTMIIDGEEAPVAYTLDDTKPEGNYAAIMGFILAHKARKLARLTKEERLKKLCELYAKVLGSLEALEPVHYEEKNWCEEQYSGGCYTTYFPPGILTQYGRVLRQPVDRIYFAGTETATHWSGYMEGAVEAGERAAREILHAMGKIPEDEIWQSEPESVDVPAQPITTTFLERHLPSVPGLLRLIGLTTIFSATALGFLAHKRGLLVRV
Procedure: (§1) A slightly modified continuous spectrophotometric assay [25] for measuring enzymatic H2O2 production was validated before the experiments. In this assay, the peroxidase chromogen reagent of 1 mM of vanillic acid and 500 μM 4-aminoantipyrine, and 4 U purpurogallin/mL of horseradish peroxidase (HRP) type-II in HBSS (pH 7.4) was prepared and validated with H2O2 standard curve. […] Isozymes were diluted to 0.7 U/mL final concentration by 10 mM HEPES in HBSS (pH 7.4). Substrates final concentrations were optimized to be 0.5 and 3 mM tyramine HCl and benzylamine HCl for hMAO-A and hMAO-B reactions. […] Stock solvents (ethanol or dimethyl sulfoxide) were kept ≤ 2% the final volume of all assays.
(§2) The six benzopyrones of 5 × final concentrations between 0 to 400 μM and PCSEE from 0 to 250 μg/mL of at least ten data points were prepared in HBSS (pH 7.4). […] Freshly prepared volumes of 50 μL of 2.5 × substrate and peroxidase chromogen mix (1:1) were added. Absorbance was immediately read at 490 nm by the Bio-Tek μQuant Monochromatic Microplate Spectrophotometer for time zero. H2O2 production progression for each enzyme was measured every 20 min for the duration of the assay. First read measurements and the blanks background were subtracted from all absorbance values.

[2] = target: T2, recombinant human MAO-A (hMAO-A) (Homo sapiens, UniProt P21397); test: hMAO-A continuous spectrophotometric assay (enzymatic H2O2 production); type: biochemical; details: for RSA (relative selectivity for hMAO-A): hMAO-B IC50/hMAO-A IC50
T2 construct: purchased Sigma-Aldrich; host or cells: baculovirus infected insect cells
T2 sequence (P21397 1-527): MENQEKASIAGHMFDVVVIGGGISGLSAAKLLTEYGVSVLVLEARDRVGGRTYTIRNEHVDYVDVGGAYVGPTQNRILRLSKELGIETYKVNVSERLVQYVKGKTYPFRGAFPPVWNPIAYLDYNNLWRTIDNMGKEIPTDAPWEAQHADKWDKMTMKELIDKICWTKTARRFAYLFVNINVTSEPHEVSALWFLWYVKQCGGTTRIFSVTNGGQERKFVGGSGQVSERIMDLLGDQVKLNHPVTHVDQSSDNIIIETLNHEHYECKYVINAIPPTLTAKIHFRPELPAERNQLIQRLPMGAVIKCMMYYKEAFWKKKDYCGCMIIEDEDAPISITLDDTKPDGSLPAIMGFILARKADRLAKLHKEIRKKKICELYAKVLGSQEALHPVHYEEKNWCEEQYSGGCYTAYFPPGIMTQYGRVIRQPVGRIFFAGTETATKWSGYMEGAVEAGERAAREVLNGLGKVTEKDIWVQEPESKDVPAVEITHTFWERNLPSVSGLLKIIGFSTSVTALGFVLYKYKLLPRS
Procedure: as §1, §2

hMAO-B [3] = target: T3, hMAO-B (Homo sapiens, UniProt P27338); test: hMAO-B MAO-Glo luminescence assay; type: biochemical; parameters: purchased Sigma-Aldrich; host or cells: baculovirus infected insect cells; details: 10 μg/mL; MAO-Glo kit
T3 sequence (P27338 1-520): T1 sequence (P27338 1-520)
Procedure: A slightly modified continuous spectrophotometric assay for measuring enzymatic H2O2 production was validated before the experiments. In this assay, the peroxidase chromogen reagent of 1 mM of vanillic acid and 500 μM 4-aminoantipyrine, and 4 U purpurogallin/mL of horseradish peroxidase (HRP) type-II in HBSS (pH 7.4) was prepared and validated with H2O2 standard curve. The linearity of reaction on the instrument was confirmed to reach up to 1.76 nmol per reaction volume with R^2 of 0.9999. Isozymes were diluted to 0.7 U/mL final concentration by 10 mM HEPES in HBSS (pH 7.4). Substrates final concentrations were optimized to be 0.5 and 3 mM tyramine HCl and benzylamine HCl for hMAO-A and hMAO-B reactions. The assay was run with and without different standard MAOIs with different selectivities (DEP, CLORG, pirlindole, and rasagiline) and monitored for few hours. Isozymes were found stable within the time of incubation. Stock solvents (ethanol or dimethyl sulfoxide) were kept ≤ 2% the final volume of all assays.
A buffer of 12.5 μL was used to make equivalent blank volumes of wells without enzyme. […] Reporter luciferase detects reagent of 50 μL was incubated with each reaction for 20-30 min to inhibit the enzyme and produce luminescence. Arbitrary light units (ALU) signal changes were measured by Synergy HTX Multi-Reader from Bio-Tek and converted to percent control change.

hMAO-A [4] = target: T4, hMAO-A (Homo sapiens, UniProt P21397); test: hMAO-A recovery after dilution (reversibility); type: biochemical
T4 construct: purchased Sigma-Aldrich; host or cells: baculovirus infected insect cells
T4 sequence (P21397 1-527): T2 sequence (P21397 1-527)

hMAO-B [5] = target: T3, hMAO-B; test: Michaelis-Menten kinetics of hMAO-B; details: mixed enzyme inhibition model, GraphPad Prism; ± SEM
hMAO-B [6] = target: T3, hMAO-B; test: hMAO-B recovery after dilution (reversibility); type: biochemical; parameters: purchased Sigma-Aldrich; host or cells: baculovirus infected insect cells
[7] = H2O2 scavenging activity assay; details: 15 μM H2O2; PCSEE and ascorbic acid 62.5, 125, 250 μg/mL; BIO-A 6.25, 12.5, 25 μg/mL
Procedure: The H2O2 scavenging activity of PCSEE and BIO-A at their highest used MAO inhibitory concentrations was investigated and compared to the standard scavenger L-ascorbic acid. […] Buffer substituted the H2O2 (n = 4) to make blank wells. Immediately, peroxidase chromogen-containing vanillic acid, 4-aminoantipyrine, and HRP type-II were prepared as in the MAO spectrophotometric assay and added as 25 μL per well. The developing color at 490 nm was optimally read within 15 min at RT using Bio-Tek Synergy HTX Multi-Reader absorbance.

hMAO-A [8] = target: T4, hMAO-A; test: hMAO-A MAO-Glo luminescence assay; type: biochemical; details: 10 μg/mL; MAO-Glo kit
[9] = spectrophotometric assay, 0.5 mM tyramine, 40 min preincubation at RT, ± SEM, read-out: hMAO-A IC50
[10] = 0.1 × IC50 after 100-fold dilution (diluted)
[11] = 1 × IC50 after 100-fold dilution (diluted)
[12] = recovery after dilution, monitored with time

CC(C)=CCc1c(O)cc2c(c1O)C(=O)C[C@@H](c1ccc(O)cc1)O2 [6-PN, 6-prenylnaringenin]
RSB (relative selectivity for hMAO-B) ([1]; hMAO-A IC50/hMAO-B IC50): 3.0
IC50 ([1]; spectrophotometric assay): 17.9 ± 1.84 µM
IC50 [2, 9]: 54.53 ± 0.31 µM
relative effectiveness between isozymes, luminescence assay (hMAO-B [3]): more effective against hMAO-B

COc1ccc(-c2coc3cc(O)cc(O)c3c2=O)cc1 [BIO-A, 5,7-dihydroxy-4'-methoxyisoflavone]
% hMAO-A H2O2 production control (hMAO-A [4]; [10]): 90%
% hMAO-A H2O2 production control (hMAO-A [4]; 1 × IC50, undiluted): 44.5%
% hMAO-A H2O2 production control (hMAO-A [4]; [11]): 52% and ~ 50%
reversibility of hMAO-A inhibition (hMAO-A [4]; [12]): reversible inhibitor
hMAO-B inhibition model alpha (hMAO-B [5]): > 1
% hMAO-B H2O2 production control (hMAO-B [6]; [10]): 80%
% hMAO-B H2O2 production control (hMAO-B [6]; 1 × IC50, undiluted): 36%
% hMAO-B H2O2 production control (hMAO-B [6]; [11]): 51% and ~ 50%
reversibility of hMAO-B inhibition (hMAO-B [6]; [12]): reversible inhibitor
H2O2 scavenging activity [7]: did not show any scavenging activities

C#CCN(C)[C@H](C)Cc1ccccc1 [DEP, selegiline, reference compound]
% hMAO-A H2O2 production control (hMAO-A [4]; [10]): 7%

O=c1ccc2ccc3occc3c2o1 [IPS, isopsoralen]
IC50 ([1]; spectrophotometric assay): 51 ± 0.24 µM
IC50 [2]: 20.6 ± 2.45 µM
RSA (relative selectivity for hMAO-A) [2]: 2.5
relative effectiveness between isozymes, luminescence assay (hMAO-A [8]): more effective against hMAO-A

CC(C)=CCc1cc(-c2coc3cc(O)ccc3c2=O)ccc1O [NBI, neobavaisoflavone]
IC50 ([1]; spectrophotometric assay): 77.3 ± 10.6 µM
RSA (relative selectivity for hMAO-A) [2]: 1.2
IC50 [2, 9]: 66.5 ± 5.66 µM
relative effectiveness between isozymes, luminescence assay (hMAO-A [8]): more effective against hMAO-A

O=c1ccc2cc3ccoc3cc2o1 [PS, psoralen]
IC50 ([1]; spectrophotometric assay): 175 ± 50.9 µM
RSA (relative selectivity for hMAO-A) [2]: 2.0
IC50 [2, 9]: 89 ± 5.74 µM
relative effectiveness between isozymes, luminescence assay (hMAO-A [8]): more effective against hMAO-A

CC(C)=CCc1cc2c(cc1O)oc(=O)c1c3ccc(O)cc3oc21 [PSD, psoralidin]
hMAO-B inhibition (in words) ([1]; spectrophotometric assay, up to 400 μM, p < 0.001): partial inhibition
hMAO-A inhibition (in words) ([2]; spectrophotometric assay, up to 400 μM): no detectable inhibition

O=C1O[C@H]([C@@H](O)CO)C(O)=C1O [ascorbic acid, L-ascorbic acid, reference compound]
H2O2 scavenging activity [7]: complete scavenging activity
